Earlier results in patent US20130190270A1, “Method for Improving Vein Performance in Bypass Surgery” (priority 2012, published 2013).
Read-outs that look alike come from different tables or passages of the source.

Experiments:
[1] = test system: circulating sPLA2-IIA; settings: patients who underwent CABG
[2] = test system: atherosclerosis; settings: mice
[3] = test system: atherosclerosis; settings: guinea pigs
[4] = test system: atherosclerosis; settings: humans

Row | Compound | effect on circulating sPLA2-IIA levels [1] | effect on atherosclerosis [2] | effect on atherosclerosis [3] | effect on atherosclerosis [4]
1 | heparin | induce increased circulating sPLA2-IIA levels | – | – | –
2 | CCc1c(C(=O)C(N)=O)c2c(OCC(=O)O)cccc2n1Cc1ccccc1 | – | can reduce atherosclerosis | can reduce atherosclerosis | can reduce atherosclerosis
